Assay [1] concerns the target chloride channel (human erythrocyte chloride conductance). Kind of assay: In vitro human erythrocyte chloride conductance. Conditions: suspensions of human erythrocytes; calculated from dose-response of membrane Cl-conductance (GCl); read-out: KD-value, chloride conductance block. The format is cell-based. The source says: In this example the chloride channel blocking activity of an acetamide derivative representative of the invention, i.e. Compound 3 (2-(4-Chloro-phenyl)-N-[4′-chloro-3-(1H-tetrazol-5-yl)-biphenyl-4-yl]-acetamide), has been determined.
All dose-response experiments were therefore performed by concomitant measurements of conductive netfluxes of Cl^− (JCl) and membrane potentials (Vm) in suspensions of erythrocytes as described by Bennekou et al. (Bennekou P and Christophersen P: Flux ratio of Valinomycin—Mediated K^+Fluxes across the Human Red Cell Membrane in the presence of the Protronophore CCCP; J. Membrane Biol. 1986 93 221-227).
The membrane Cl-conductances (GCl) were calculated according to Hodgkin et al. (Hodgkin A L and Huxley A F: The components of membrane conductance in the giant axon of Loligo; J. Physiol. Lond. 1952 116 449-472) using the following equation: […]
where F is the Faraday constant and ECl is the Nernst potential for the Cl-ion.

In assay [2] the target is T1, BK channels heterologously expressed in Xenopus laevis oocytes (Homo sapiens, UniProt Q12791).
T1 construct: expressed in transfected cells; host or cells: Xenopus laevis oocytes
T1 sequence (Q12791 whole entry): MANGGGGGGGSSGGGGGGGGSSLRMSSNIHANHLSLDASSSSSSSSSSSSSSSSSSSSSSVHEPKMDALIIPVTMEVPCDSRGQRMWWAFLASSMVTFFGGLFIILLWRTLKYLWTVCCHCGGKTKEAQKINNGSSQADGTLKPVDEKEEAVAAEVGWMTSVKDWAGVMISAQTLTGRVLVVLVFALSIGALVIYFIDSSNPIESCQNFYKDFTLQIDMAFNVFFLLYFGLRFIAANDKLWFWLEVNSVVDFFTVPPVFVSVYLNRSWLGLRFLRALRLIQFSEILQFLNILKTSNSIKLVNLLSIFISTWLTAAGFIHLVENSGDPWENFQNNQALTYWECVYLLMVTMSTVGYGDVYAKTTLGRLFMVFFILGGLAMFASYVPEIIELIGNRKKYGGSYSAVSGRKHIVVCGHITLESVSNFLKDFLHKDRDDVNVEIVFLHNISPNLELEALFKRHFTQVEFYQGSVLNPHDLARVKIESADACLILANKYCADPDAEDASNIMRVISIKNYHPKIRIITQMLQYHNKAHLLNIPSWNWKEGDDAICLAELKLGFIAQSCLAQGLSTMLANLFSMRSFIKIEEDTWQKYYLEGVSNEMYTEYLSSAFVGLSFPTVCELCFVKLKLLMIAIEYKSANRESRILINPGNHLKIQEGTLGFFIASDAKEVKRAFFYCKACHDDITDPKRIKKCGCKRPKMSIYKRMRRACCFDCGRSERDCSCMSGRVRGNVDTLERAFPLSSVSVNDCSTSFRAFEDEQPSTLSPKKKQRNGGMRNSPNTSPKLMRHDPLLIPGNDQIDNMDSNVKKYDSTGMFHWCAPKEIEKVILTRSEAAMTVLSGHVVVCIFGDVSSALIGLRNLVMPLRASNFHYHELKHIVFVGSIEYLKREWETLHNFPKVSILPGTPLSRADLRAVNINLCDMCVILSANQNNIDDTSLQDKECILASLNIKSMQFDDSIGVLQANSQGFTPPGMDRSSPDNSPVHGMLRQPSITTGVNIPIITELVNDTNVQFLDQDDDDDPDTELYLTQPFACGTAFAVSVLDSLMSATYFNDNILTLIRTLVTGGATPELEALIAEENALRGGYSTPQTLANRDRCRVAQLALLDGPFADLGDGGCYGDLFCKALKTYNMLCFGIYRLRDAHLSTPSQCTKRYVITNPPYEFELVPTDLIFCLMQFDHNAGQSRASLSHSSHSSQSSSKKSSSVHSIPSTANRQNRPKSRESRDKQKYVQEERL
Kind of assay: BK channel activation, two-electrode voltage clamp in Xenopus laevis oocytes. Type of assay: cell-based. Conditions: depolarising step to +20 mV. The protocol: In this example the BK channel opening activity of two acetamide derivatives of to the invention, i.e. 2-(3,5-difluoro-phenyl)-N-[3-(5-oxo-4,5-dihydro-[1,2,4]oxadiazol-3-yl)-4′-trifluoromethyl-biphenyl-4-yl]-acetamide (Compound 7), and 2-(3,5-bis-trifluoromethyl-phenyl)-N-[4-bromo-2-(1H-tetrazol-5-yl)-phenyl]-acetamide (Compound 2) herein designated Compound A and Compound B, respectively, is determined using BK channels heterologously expressed in Xenopus laevis oocytes.
The electrical current through the BK channel is measured by conventional two-electrode voltage clamp. BK current is activated by repeated step protocols. In brief, this protocol goes from a resting membrane potential of −40 mV lasting for 5 s to a depolarised step to +20 mV lasting for 1 s. The protocol was repeated continuously.
Having reached a stable current level, Compound A (3 μM) and Compound B (10 μM), respectively, was added. A marked increase in the current activated by depolarisation could be observed. The BK current activity returned to baseline after approximately 30-80 seconds of wash. In summary BK current was increased by 367±92% in the presence of 3 μM of Compound A (n=3, SD value), and 327±88% in the presence of 10 μM of Compound B.

Regarding `O=C(Cc1ccc(Cl)cc1)Nc1ccc(-c2ccc(Cl)cc2)cc1-c1nnn[nH]1` [Compound 3, 2-(4-Chloro-phenyl)-N-[4′-chloro-3-(1H-tetrazol-5-yl)-biphenyl-4-yl]-acetamide], in assay [1], the Kd is 90 nM. Take `O=C(Cc1cc(F)cc(F)c1)Nc1ccc(-c2ccc(C(F)(F)F)cc2)cc1-c1noc(=O)[nH]1` [Compound A, 2-(3,5-difluoro-phenyl)-N-[3-(5-oxo-4,5-dihydro-[1,2,4]oxadiazol-3-yl)-4′-trifluoromethyl-biphenyl-4-yl]-acetamide]: the BK current increase in assay [2] (3 μM compound, n=3, SD value) is 367±92%. As to `O=C(Cc1cc(C(F)(F)F)cc(C(F)(F)F)c1)Nc1ccc(Br)cc1-c1nnn[nH]1` [Compound B, 2-(3,5-Bis-trifluoromethyl-phenyl)-N-[4-bromo-2-(1H-tetrazol-5-yl)-phenyl]-acetamide], in assay [2] (10 μM compound), the BK current increase is listed as 327±88%.

The values above are taken from patent US20100137381A1, “ACETAMIDE DERIVATIVES AS POTASSIUM CHANNEL MODULATORS” (NeuroSearch A/S, priority 2007, published 2010).
